target: SIK2 (Homo sapiens, UniProt Q9H0K1); experiment: SIK2 Enzymatic Assay High Version 2 (High ATP); type: biochemical; details: not given
Outline: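 At room temperature, enzyme (6 nM, 2× final) was preincubated with compound for 30 min, then 6 mM ATP and 400 μM HDAC5tide (both 2× final) were added for 2 h. ADP formed was measured by ADP-Glo Max (2 h reagent, 1 h detection) using luminescence.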

Chain of SIK2 (Q9H0K1 whole entry, species assumed): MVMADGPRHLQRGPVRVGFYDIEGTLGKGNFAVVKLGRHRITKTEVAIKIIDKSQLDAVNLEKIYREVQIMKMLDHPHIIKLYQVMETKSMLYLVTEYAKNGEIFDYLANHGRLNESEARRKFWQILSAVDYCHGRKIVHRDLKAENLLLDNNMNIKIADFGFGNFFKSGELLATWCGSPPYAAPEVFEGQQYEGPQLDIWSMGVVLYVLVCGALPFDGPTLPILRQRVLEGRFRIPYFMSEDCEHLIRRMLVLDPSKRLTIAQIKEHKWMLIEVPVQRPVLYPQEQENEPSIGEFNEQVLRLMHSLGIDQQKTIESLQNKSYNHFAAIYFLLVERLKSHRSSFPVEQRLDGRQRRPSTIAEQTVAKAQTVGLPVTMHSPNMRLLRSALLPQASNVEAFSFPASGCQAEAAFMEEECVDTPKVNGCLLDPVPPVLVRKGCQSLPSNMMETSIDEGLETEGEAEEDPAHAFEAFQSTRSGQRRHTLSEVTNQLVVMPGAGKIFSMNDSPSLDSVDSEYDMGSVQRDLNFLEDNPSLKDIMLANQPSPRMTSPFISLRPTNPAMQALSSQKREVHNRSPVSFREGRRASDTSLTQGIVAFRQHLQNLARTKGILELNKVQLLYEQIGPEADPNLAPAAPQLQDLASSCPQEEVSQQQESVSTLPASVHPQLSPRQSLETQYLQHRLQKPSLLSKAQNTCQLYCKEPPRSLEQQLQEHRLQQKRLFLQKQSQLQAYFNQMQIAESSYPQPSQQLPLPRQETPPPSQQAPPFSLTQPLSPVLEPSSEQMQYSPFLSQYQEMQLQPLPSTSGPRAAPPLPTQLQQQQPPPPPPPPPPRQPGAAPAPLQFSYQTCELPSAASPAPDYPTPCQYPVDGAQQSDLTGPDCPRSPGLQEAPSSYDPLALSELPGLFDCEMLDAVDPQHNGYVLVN

| SMILES | IC50 [µM] |
| --- | --- |
| Cc1cc(-c2cc3cc(NC(=O)C4CC4)nn3cn2)c(O[C@H]2C[C@H]3COC[C@@H](C2)N3C)cn1 [Example 319, N-[5-[2-methyl-5-[[(1S,5R)-9-methyl-3-oxa-9-azabicyclo[3.3.1]nonan-7-yl]oxy]-4-pyridyl]pyrazolo[1,5-c]pyrimidin-2-yl]cyclopropanecarboxamide] | 0.00194 |
| Cc1cnc(Nc2cn3cc(-c4cc(C)ncc4O[C@H]4C[C@H]5COC[C@@H](C4)N5)ncc3n2)cn1 [Example 320, 6-[2-methyl-5-[[(1S,5R)-3-oxa-9-azabicyclo[3.3.1]nonan-7-yl]oxy]-4-pyridyl]-N-(5-methylpyrazin-2-yl)imidazo[1,2-a]pyrazin-2-amine] | 0.00102 |
| Cc1cc(-c2cn3cc(Nc4cncc(C)n4)nc3cn2)c(O[C@H]2C[C@H]3COC[C@@H](C2)N3)cn1 [Example 321, 6-[2-methyl-5-[[(1S,5R)-3-oxa-9-azabicyclo[3.3.1]nonan-7-yl]oxy]-4-pyridyl]-N-(6-methylpyrazin-2-yl)imidazo[1,2-a]pyrazin-2-amine] | < 0.000847 |
| Cc1cc(-c2cn3cc(Nc4cnn(C)c4)nc3cn2)c(O[C@H]2C[C@H]3COC[C@@H](C2)N3)cn1 [Example 322, 6-[2-methyl-5-[[(1S,5R)-3-oxa-9-azabicyclo[3.3.1]nonan-7-yl]oxy]-4-pyridyl]-N-(1-methylpyrazol-4-yl)imidazo[1,2-a]pyrazin-2-amine] | 0.0015 |
| Cc1cc(-c2ccn3nc(Nc4cc(C)nc(C)n4)cc3c2)c(O[C@H]2C[C@H]3COC[C@@H](C2)N3C#N)cn1 [Example 336, (1S,5R)-7-[[4-[2-[(2,6-dimethylpyrimidin-4-yl)amino]pyrazolo[1,5-a]pyridin-5-yl]-6-methyl-3-pyridyl]oxy]-3-oxa-9-azabicyclo[3.3.1]nonane-9-carbonitrile] | < 0.000847 |
| Cc1cc(-c2ccn3nc(Nc4cc(C)c(=O)n(C)n4)cc3c2)c(OC2C[C@H]3COC[C@@H](C2)N3)cn1 (stereo partly drawn) [Example 337, 2,4-dimethyl-6-[[5-[2-methyl-5-[[(1S,5R)-3-oxa-9-azabicyclo[3.3.1]nonan-7-yl]oxy]-4-pyridyl]pyrazolo[1,5-a]pyridin-2-yl]amino]pyridazin-3-one] | 0.00148 |
| Cc1cc(-c2ccn3nc(Nc4nccc(C)c4F)cc3c2)c(O[C@H]2C[C@H]3COC[C@@H](C2)N3)cn1 [Example 338, N-(3-fluoro-4-methyl-2-pyridyl)-5-[2-methyl-5-[[(1S,5R)-3-oxa-9-azabicyclo[3.3.1]nonan-7-yl]oxy]-4-pyridyl]pyrazolo[1,5-a]pyridin-2-amine] | 0.00325 |
| CC(=O)N1[C@@H]2COC[C@H]1C[C@@H](Oc1cnc(C)cc1-c1ccn3nc(NC(=O)C4CC4)cc3c1)C2 [Example 339, N-[5-[5-[[(1S,5R)-9-acetyl-3-oxa-9-azabicyclo[3.3.1]nonan-7-yl]oxy]-2-methyl-4-pyridyl]pyrazolo[1,5-a]pyridin-2-yl]cyclopropanecarboxamide] | 0.00231 |
| COc1cc(Nc2cc3cc(-c4cc(C)ncc4O[C@H]4C[C@H]5COC[C@@H](C4)N5)ccn3n2)cc(OC)c1C(=O)NC(C)C [Example 340, N-isopropyl-2,6-dimethoxy-4-[[5-[2-methyl-5-[[(1S,5R)-3-oxa-9-azabicyclo[3.3.1]nonan-7-yl]oxy]-4-pyridyl]pyrazolo[1,5-a]pyridin-2-yl]amino]benzamide] | < 0.000847 |
| Cc1cc(-c2ccn3nc(Nc4cc(C(=O)NC(C)C)n(C)n4)cc3c2)c(O[C@H]2C[C@H]3COC[C@@H](C2)N3)cn1 [Example 341, N-isopropyl-2-methyl-5-[[5-[2-methyl-5-[[(1S,5R)-3-oxa-9-azabicyclo[3.3.1]nonan-7-yl]oxy]-4-pyridyl]pyrazolo[1,5-a]pyridin-2-yl]amino]pyrazole-3-carboxamide] | < 0.000847 |
| Cc1cc(-c2ccn3nc(Nc4cc(C)nc(C)n4)cc3c2)c(OC[C@@H]2COC(=O)N2)cn1 [Example 342, (4R)-4-[[4-[2-[(2,6-dimethylpyrimidin-4-yl)amino]pyrazolo[1,5-a]pyridin-5-yl]-6-methyl-3-pyridyl]oxymethyl]oxazolidin-2-one] | 0.032 |

same assay, conditions: enzyme 6 nM, 6 mM ATP and 400 μM HDAC5tide (each 2× final concentration); 30 minutes pre-incubation, 2 hours; ADP-Glo Max luminescence; read-out: SIK2 high ATP IC50 (μM) (Test Example 2)

| IC50 [µM] | SMILES |
| --- | --- |
| 0.0017 | Cc1cc(-c2ccn3nc(Nc4cc(C)c(=O)n(C5CC5)n4)cc3c2)c(OC[C@H]2OCC[C@@H]2O)cn1 [Example 317, 2-cyclopropyl-6-[[5-[5-[[(2R,3S)-3-hydroxytetrahydrofuran-2-yl]methoxy]-2-methyl-4-pyridyl]pyrazolo[1,5-a]pyridin-2-yl]amino]-4-methyl-pyridazin-3-one] |
| < 0.000847 | Cc1cc(-c2ccn3nc(Nc4cc(C)c(=O)n(C5CC5)n4)cc3c2)c(O[C@H]2CC[C@H](O)CC2)cn1 [Example 318, 2-cyclopropyl-6-[[5-[5-(4-hydroxycyclohexoxy)-2-methyl-4-pyridyl]pyrazolo[1,5-a]pyridin-2-yl]amino]-4-methyl-pyridazin-3-one] |
| 0.0273 | Cc1cc(-c2ccn3nc(Nc4ccc(S(=O)(=O)NC5CC5)cc4)cc3c2)c(O[C@H]2CC[C@H](O)CC2)cn1 [Example 323, N-cyclopropyl-4-[[5-[5-(4-hydroxycyclohexoxy)-2-methyl-4-pyridyl]pyrazolo[1,5-a]pyridin-2-yl]amino]benzenesulfonamide] |
| 0.0329 | Cc1cc(-c2ccn3nc(Nc4ccc(S(=O)(=O)N(C)C)cc4)cc3c2)c(O[C@H]2CC[C@H](O)CC2)cn1 [Example 324, 4-[[5-[5-(4-hydroxycyclohexoxy)-2-methyl-4-pyridyl]pyrazolo[1,5-a]pyridin-2-yl]amino]-N,N-dimethyl-benzenesulfonamide] |
| 0.0362 | Cc1cc(-c2ccn3nc(Nc4cc(C)c(C(=O)NC5CC5)c(C)c4)cc3c2)c(OCC(C)(C)O)cn1 [Example 326, N-cyclopropyl-4-[[5-[5-(2-hydroxy-2-methyl-propoxy)-2-methyl-4-pyridyl]pyrazolo[1,5-a]pyridin-2-yl]amino]-2,6-dimethyl-benzamide] |
| 0.028 | COc1cc(Nc2cc3cc(-c4cc(C)ncc4O[C@H]4CC[C@H](O)CC4)ccn3n2)cc(OC)c1C(=O)NC(C)C [Example 330, 4-[[5-[5-(4-hydroxycyclohexoxy)-2-methyl-4-pyridyl]pyrazolo[1,5-a]pyridin-2-yl]amino]-N-isopropyl-2,6-dimethoxy-benzamide] |
| 0.0366 | CNC(=O)c1c(OC)cc(Nc2cc3cc(-c4cc(C)ncc4O[C@H]4CC[C@H](O)CC4)ccn3n2)cc1OC [Example 331, 4-[[5-[5-(4-hydroxycyclohexoxy)-2-methyl-4-pyridyl]pyrazolo[1,5-a]pyridin-2-yl]amino]-2,6-dimethoxy-N-methyl-benzamide] |
| 0.015 | COc1cc(Nc2cc3cc(-c4cc(C)ncc4O[C@H]4CC[C@H](O)CC4)ccn3n2)cc(OC)c1C(=O)N(C)C [Example 332, 4-[[5-[5-(4-hydroxycyclohexoxy)-2-methyl-4-pyridyl]pyrazolo[1,5-a]pyridin-2-yl]amino]-2,6-dimethoxy-N,N-dimethyl-benzamide] |
| 0.0448 | COc1cc(Nc2cc3cc(-c4cc(C)ncc4O[C@H]4CC[C@H](O)CC4)ccn3n2)cc(OC(F)F)c1C(=O)NC1CC1 [Example 333, N-cyclopropyl-2-(difluoromethoxy)-4-[[5-[5-(4-hydroxycyclohexoxy)-2-methyl-4-pyridyl]pyrazolo[1,5-a]pyridin-2-yl]amino]-6-methoxy-benzamide] |
| 0.00301 | Cc1cc(-c2ccn3nc(Nc4cc(C)c(C(=O)NC5CC5)c(C)n4)cc3c2)c(O[C@H]2CC[C@H](O)CC2)cn1 [Example 334, N-cyclopropyl-6-[[5-[5-(4-hydroxycyclohexoxy)-2-methyl-4-pyridyl]pyrazolo[1,5-a]pyridin-2-yl]amino]-2,4-dimethyl-pyridine-3-carboxamide] |
| 0.0233 | Cc1cc(-c2ccn3nc(Nc4cc(C)c(C(=O)NC5CC5)c(C)n4)cc3c2)c(OCC(C)(C)O)cn1 [Example 335, N-cyclopropyl-6-[[5-[5-(2-hydroxy-2-methyl-propoxy)-2-methyl-4-pyridyl]pyrazolo[1,5-a]pyridin-2-yl]amino]-2,4-dimethyl-pyridine-3-carboxamide] |
| 0.0376 | Cc1cc(-c2ccn3nc(Nc4cc(C)nc(C)n4)cc3c2)c(O[C@H]2CC[C@H](C(N)=O)CC2)cn1 [Example 343, 4-[[4-[2-[(2,6-dimethylpyrimidin-4-yl)amino]pyrazolo[1,5-a]pyridin-5-yl]-6-methyl-3-pyridyl]oxy]cyclohexanecarboxamide] |

More lines, now with the values behind:

| SMILES | IC50 [µM] |
| --- | --- |
| Cc1cc(-c2ccn3nc(Nc4cc(C)c(=O)n(C5CC5)n4)cc3c2)c(OCC(C)(C)C#N)cn1 [Example 316, 3-[[4-[2-[(1-cyclopropyl-5-methyl-6-oxo-pyridazin-3-yl)amino]pyrazolo[1,5-a]pyridin-5-yl]-6-methyl-3-pyridyl]oxy]-2,2-dimethyl-propanenitrile] | < 0.000847 |
| Cc1cc(Nc2cc3cc(-c4cc(CF)ncc4OCC(C)(C)O)ccn3n2)nc(C)n1 [Example 327, 1-[[4-[2-[(2,6-dimethylpyrimidin-4-yl)amino]pyrazolo[1,5-a]pyridin-5-yl]-6-(fluoromethyl)-3-pyridyl]oxy]-2-methyl-propan-2-ol] | 0.0366 |
| CCc1cc(-c2ccn3nc(Nc4cc(C)nc(C)n4)cc3c2)c(OCC(C)(C)C#N)cn1 [Example 328, 3-[[4-[2-[(2,6-dimethylpyrimidin-4-yl)amino]pyrazolo[1,5-a]pyridin-5-yl]-6-ethyl-3-pyridyl]oxy]-2,2-dimethyl-propanenitrile] | 0.0381 |
| Cc1cc(Nc2cc3cc(-c4cc(OC(F)F)ncc4OCC(C)(C)C#N)ccn3n2)nc(C)n1 [Example 329, 3-[[6-(difluoromethoxy)-4-[2-[(2,6-dimethylpyrimidin-4-yl)amino]pyrazolo[1,5-a]pyridin-5-yl]-3-pyridyl]oxy]-2,2-dimethyl-propanenitrile] | 0.00358 |
| Cc1cc(-c2ccn3nc(Nc4cc(C)nc(C)n4)cc3c2)c(O[C@@H]2CCS(=O)(=O)C2)cn1 [Example 344, N-(2,6-dimethylpyrimidin-4-yl)-5-[5-[(3R)-1,1-dioxothiolan-3-yl]oxy-2-methyl-4-pyridyl]pyrazolo[1,5-a]pyridin-2-amine] | 0.00362 |

— patent US20240158392A1 (Janssen Biotech, Inc., priority 2021, published 2024)
